Among the test systems are RPMI-8226; OVCAR-3; MDA-MB-231; HCT-15; CAKI-1; M14; UACC-257; NCI-H522; HCT-116; OVCAR-5; SW-620; CCRF-CEM; T47D; 786-0; HOP-92; NCI-H23; TK-10; UO-31; BT-549.
Common to all, as to assay: NCI tumour cell line growth inhibition, 48 h

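Exposure lasted 48 hours, with cells grown in 96-well plates and compounds tested at five concentrations. At the GI50, growth is halved.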 Calls of active or inactive are those of the source. No stated cut-off is given here; in the data, active = GI50 up to about 1.1 µM and inactive = higher.

On to `CCOC(=O)/C(=C\NC(=S)Nc1ccc(OCC)cc1)C(=O)c1ccccc1`, for which the GI50 in the test on RPMI-8226 is > 100 µM (inactive); in the test with OVCAR-3, > 100 µM (inactive); with MDA-MB-231 it was > 100 µM (inactive); in the test on HCT-15, above 100 µM; with CAKI-1, > 100 µM (inactive); with M14 it was > 100 µM (inactive). Moreover, the GI50 in the test on UACC-257, with NCI-H522, in the test with HCT-116, in the test with OVCAR-5, with SW-620 and in the test on CCRF-CEM was > 100 µM (inactive) each time. The GI50 is 24 µM (inactive) in the test with T47D, > 100 µM (inactive) with 786-0, 8.26 µM (inactive) in the test with HOP-92 and > 100 µM (inactive) in the test on NCI-H23.
`O=C1c2cccc3cc([N+](=O)[O-])cc(c23)C(=O)N1CCCN1CCN(CCCNc2ccc3ncn4c5ccccc5c(=O)c2c34)CC1`: the GI50 is < 0.005 µM (active) with RPMI-8226; 0.0358 µM (active) in the test with OVCAR-3; < 0.005 µM (active) with MDA-MB-231; below 0.005 µM in the test on HCT-15; < 0.005 µM (active) with CAKI-1; < 0.005 µM (active) in the test on M14. For the same compound, the GI50 with UACC-257 was < 0.005 µM (active); in the test on TK-10, < 0.005 µM (active); in the test with NCI-H522, < 0.005 µM (active); with HCT-116, < 0.005 µM (active); in the test with OVCAR-5 it was 0.00867 µM (active); in the test on UO-31, < 0.005 µM (active). For the same compound, the GI50 with SW-620 was < 0.005 µM (active); with CCRF-CEM it was < 0.005 µM (active); with BT-549, < 0.005 µM (active); in the test with 786-0 it was < 0.005 µM (active); in the test on HOP-92 it was 0.013 µM (active); in the test on NCI-H23, < 0.005 µM (active).
For `NC(=O)c1nnsc1NC=O`, the GI50 in the test with RPMI-8226 is > 100 µM (inactive); in the test with MDA-MB-231, > 100 µM (inactive); in the test with HCT-15 it was above 100 µM; in the test with CAKI-1, > 100 µM (inactive); with M14, > 100 µM (inactive); with UACC-257 it was > 100 µM (inactive). Moreover, the GI50 with NCI-H522, with HCT-116, in the test with OVCAR-5, in the test on UO-31, with SW-620 and in the test with CCRF-CEM was > 100 µM (inactive) each time. Also, the GI50 was > 100 µM (inactive) in the test with T47D, > 100 µM (inactive) in the test with 786-0, 75 µM (inactive) in the test with HOP-92 and > 100 µM (inactive) in the test on NCI-H23.
With `O=c1ccn(C2OC(CO)C(O)C2[Se]c2ccccc2)c(=O)[nH]1` (stereo not drawn), the GI50 is > 100 µM (inactive) with OVCAR-3; > 100 µM (inactive) in the test on MDA-MB-231; above 100 µM in the test on HCT-15; > 100 µM (inactive) in the test on CAKI-1; > 100 µM (inactive) in the test with M14; 2.77 µM (inactive) in the test on UACC-257. The GI50 with TK-10 was 0.24 µM (active); with NCI-H522, 99.1 µM (inactive); in the test with HCT-116 it was > 100 µM (inactive); in the test on OVCAR-5 it was > 100 µM (inactive); with UO-31 it was > 100 µM (inactive); with SW-620 it was > 100 µM (inactive). The GI50 in the test on CCRF-CEM, in the test on BT-549, with 786-0, in the test on HOP-92 and with NCI-H23 was > 100 µM (inactive) in each case.
On to `CCOc1cc2c(cc1O)CC[C@@H]1[C@@H]2CC[C@]2(C)[C@@H](O)CC[C@@H]12`, for which the GI50 in the test with RPMI-8226 is 0.0252 µM (active); in the test on OVCAR-3 it was 0.0184 µM (active); in the test with MDA-MB-231, 0.188 µM (active); in the test on HCT-15 it was below 0.0138 µM; with CAKI-1 it was 0.0644 µM (active); in the test with M14 it was 0.0261 µM (active). The GI50 was < 0.01 µM (active) in the test on UACC-257; < 0.0117 µM (active) in the test with NCI-H522; 0.0234 µM (active) with HCT-116; 10.8 µM (inactive) in the test with OVCAR-5; 0.256 µM (active) with UO-31; 0.0183 µM (active) with SW-620. The GI50 was 0.0274 µM (active) in the test with CCRF-CEM; 0.0125 µM (active) in the test with BT-549; 0.0301 µM (active) in the test on 786-0; 0.0537 µM (active) with HOP-92; 0.0667 µM (active) in the test on NCI-H23.
In the case of `CC(=O)OC12c3ccccc3-c3ccccc3C1C(C(=O)O)C2(Cl)C(=O)O` (stereo not drawn), the GI50 with RPMI-8226 is > 10 µM (inactive); in the test with OVCAR-3, > 10 µM (inactive); in the test with MDA-MB-231, > 10 µM (inactive); in the test on HCT-15, above 10 µM; with CAKI-1, > 10 µM (inactive); in the test with M14 it was > 10 µM (inactive). For the same compound, the GI50 with UACC-257, in the test on TK-10, in the test with NCI-H522, in the test with OVCAR-5, in the test with UO-31 and with SW-620 was > 10 µM (inactive) in each case. In addition, the GI50 in the test on CCRF-CEM, with T47D, in the test on 786-0, with HOP-92 and in the test on NCI-H23 was > 10 µM (inactive) throughout.
With `Oc1cccc(-c2cc(=S)ss2)c1`, the GI50 was 2.24 µM (inactive) in the test with RPMI-8226; 14.3 µM (inactive) with MDA-MB-231; 15.1 µM with HCT-15; 18.2 µM (inactive) with CAKI-1; 20.6 µM (inactive) with M14; 14.9 µM (inactive) in the test with UACC-257. In addition, the GI50 is 18.5 µM (inactive) with TK-10; 6.89 µM (inactive) in the test on NCI-H522; 17.9 µM (inactive) in the test on HCT-116; 15.9 µM (inactive) in the test on OVCAR-5; 14.3 µM (inactive) in the test with UO-31; 18.5 µM (inactive) in the test with SW-620. The GI50 was 16.7 µM (inactive) in the test with BT-549, 19.7 µM (inactive) in the test with 786-0, 13.9 µM (inactive) in the test on HOP-92 and 8.79 µM (inactive) with NCI-H23.
Regarding `Cc1ccc(S(=O)(=O)Nn2c(O)c(C#N)c(-c3ccc(Cl)cc3)c(C#N)c2=O)cc1`, the GI50 with RPMI-8226 was > 100 µM (inactive); with MDA-MB-231 it was > 100 µM (inactive); with HCT-15, above 100 µM; in the test on CAKI-1, > 100 µM (inactive); in the test on M14, > 100 µM (inactive); in the test on UACC-257 it was > 100 µM (inactive). Besides, the GI50 in the test on TK-10, with NCI-H522, with HCT-116, in the test on OVCAR-5, with SW-620 and in the test with CCRF-CEM was > 100 µM (inactive) in each case. Besides, the GI50 in the test with BT-549, in the test on 786-0 and with HOP-92 was > 100 µM (inactive) each time.
Regarding `CCOC(=O)N1CCC2(CC1)C[C@@](C(C)=O)(c1ccccc1)C(C)O2` (stereo partly drawn), the GI50 in the test with RPMI-8226 is > 100 µM (inactive); with OVCAR-3, > 100 µM (inactive); in the test with MDA-MB-231 it was > 100 µM (inactive); in the test with HCT-15, above 100 µM; with CAKI-1 it was > 100 µM (inactive); with M14 it was > 100 µM (inactive). The GI50 in the test on UACC-257, with TK-10, with NCI-H522, in the test on OVCAR-5, in the test with UO-31 and with SW-620 was > 100 µM (inactive) throughout. Also, the GI50 in the test on T47D was 17 µM (inactive); in the test with 786-0, > 100 µM (inactive); in the test on HOP-92, 61.1 µM (inactive); in the test with NCI-H23, > 100 µM (inactive).
As to `CN(C)c1n/c(=N/Cc2ccccn2)ss1`, the GI50 is 4.48 µM (inactive) with RPMI-8226; > 10 µM (inactive) in the test with OVCAR-3; > 10 µM (inactive) with MDA-MB-231; 9.68 µM with HCT-15; > 7.94 µM (inactive) in the test with CAKI-1; > 8.89 µM (inactive) with M14. In addition, the GI50 in the test on UACC-257 was > 10 µM (inactive); in the test with TK-10, > 10 µM (inactive); in the test on HCT-116, 7.98 µM (inactive); with OVCAR-5, 7.38 µM (inactive); with UO-31, > 10 µM (inactive); in the test on SW-620, > 6.4 µM (inactive). The GI50 is 1.24 µM (inactive) with CCRF-CEM; > 10 µM (inactive) with T47D; > 4.16 µM (inactive) in the test on 786-0; > 10 µM (inactive) with HOP-92; > 10 µM (inactive) in the test on NCI-H23.
With `O=C(/C=C/c1ccc2ccccc2c1)NCc1ccc(C(=O)NCCc2ccccc2)cc1`, the GI50 with RPMI-8226 was > 100 µM (inactive); in the test with OVCAR-3, > 100 µM (inactive); with MDA-MB-231, > 100 µM (inactive); with HCT-15, above 100 µM; in the test on CAKI-1, > 100 µM (inactive); in the test with M14, > 100 µM (inactive). Besides, the GI50 in the test on UACC-257, in the test on HCT-116, in the test with OVCAR-5, with UO-31, with SW-620 and in the test with CCRF-CEM was > 100 µM (inactive) each time. In addition, the GI50 in the test with T47D is 65.5 µM (inactive); in the test on 786-0 it was 64.3 µM (inactive); in the test with HOP-92, > 100 µM (inactive); with NCI-H23, > 100 µM (inactive).
Take `C=C(C)C#CC(O)(C(=O)OC1CCN(C)CC1)C(C)C` (stereo not drawn): the GI50 with RPMI-8226 is > 100 µM (inactive); with OVCAR-3, > 100 µM (inactive); in the test with MDA-MB-231, > 100 µM (inactive); with HCT-15, above 100 µM; in the test with CAKI-1 it was > 100 µM (inactive); with M14 it was > 100 µM (inactive). Also, the GI50 in the test with UACC-257, with TK-10, in the test on NCI-H522, with HCT-116, with OVCAR-5 and with UO-31 was > 100 µM (inactive) each time. The GI50 in the test on SW-620, in the test with CCRF-CEM, in the test with T47D, in the test on 786-0 and in the test on NCI-H23 was > 100 µM (inactive) throughout.

These data come from ChEMBL document CHEMBL1201862, “PubChem BioAssay data set” (2004).
